#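 Step 1: Grow cells in 96-well plates. Step 2: Expose to compound for 48 hours at 5 concentrations. Step 3: Interpolate endpoints linearly; if unreached, use highest concentration. GI50: concentration for 50% inhibition of growth.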 The source made the active and inactive calls. No stated cut-off is given here; in the data, active = GI50 up to about 1.1 µM and inactive = higher.
# Experiments:
# Assay in all cases: NCI-60 cell line screen, 48 h
# [1] = test system: NCI-H522
# [2] = test system: SF-539
# [3] = test system: HOP-62
# [4] = test system: NCI-H23
# [5] = test system: A498
# [6] = test system: TK-10
# [7] = test system: ACHN
# [8] = test system: OVCAR-4
# [9] = test system: SNB-19
# [10] = test system: SN12C
# [11] = test system: K562
# [12] = test system: HCT-15
# [13] = test system: UACC-62
# [14] = test system: HCC 2998
# [15] = test system: SF-268
# [16] = test system: KM12
# [17] = test system: RXF 393
# [18] = test system: NCI-H226
# [19] = test system: MCF7
Compound,GI50 [1],GI50 [2],GI50 [3],GI50 [4],GI50 [5],GI50 [6],GI50 [7],GI50 [8],GI50 [9],GI50 [10],GI50 [11],GI50 [12],GI50 [13],GI50 [14],GI50 [15],GI50 [16],GI50 [17],GI50 [18],GI50 [19]
Cc1nc2cc(Nc3ccccc3C(=O)O)ccc2s1,75 µM (inactive),> 100 µM (inactive),> 100 µM (inactive),> 100 µM (inactive),> 100 µM (inactive),> 100 µM (inactive),> 100 µM (inactive),> 100 µM (inactive),> 100 µM (inactive),63.4 µM (inactive),> 100 µM (inactive),63.1 µM,> 100 µM (inactive),> 100 µM (inactive),> 100 µM (inactive),> 100 µM (inactive),> 100 µM (inactive),–,–
CCOC(=O)C[C@@]12CCCN[C@]1(C)CCc1ccccc12,> 100 µM (inactive),> 100 µM (inactive),> 100 µM (inactive),> 100 µM (inactive),> 100 µM (inactive),> 100 µM (inactive),> 100 µM (inactive),> 100 µM (inactive),> 100 µM (inactive),> 100 µM (inactive),> 100 µM (inactive),> 100 µM,> 100 µM (inactive),> 100 µM (inactive),> 100 µM (inactive),> 100 µM (inactive),> 100 µM (inactive),–,–
Oc1ccc(O)c(-n2cccn2)c1-n1cccn1,25.7 µM (inactive),> 100 µM (inactive),> 100 µM (inactive),> 100 µM (inactive),> 100 µM (inactive),> 100 µM (inactive),> 100 µM (inactive),> 100 µM (inactive),> 100 µM (inactive),> 100 µM (inactive),36.8 µM (inactive),> 100 µM,97.7 µM (inactive),> 100 µM (inactive),> 100 µM (inactive),> 100 µM (inactive),> 100 µM (inactive),–,–
O=C(NCc1ccccc1)c1cc2cc(O)c(O)cc2cn1,4.69 µM (inactive),29 µM (inactive),20 µM (inactive),14 µM (inactive),73.3 µM (inactive),39.9 µM (inactive),12.5 µM (inactive),25.5 µM (inactive),46.9 µM (inactive),31.2 µM (inactive),12.1 µM (inactive),20 µM,16.6 µM (inactive),32.7 µM (inactive),14.4 µM (inactive),31.9 µM (inactive),21 µM (inactive),26.9 µM (inactive),–
NC(=S)N/N=C1/CN(c2ccc(Cl)c(Cl)c2)CC(=O)C1c1nc2ccccc2s1 (centres undefined),36.1 µM (inactive),51.5 µM (inactive),> 100 µM (inactive),45.1 µM (inactive),> 100 µM (inactive),> 100 µM (inactive),93.3 µM (inactive),92.7 µM (inactive),56.8 µM (inactive),95.7 µM (inactive),43 µM (inactive),> 100 µM,55.7 µM (inactive),> 100 µM (inactive),46.8 µM (inactive),42.9 µM (inactive),> 100 µM (inactive),78.7 µM (inactive),–
CC(C)(C)C(=O)Nc1cccc2oc(-c3ccccc3)cc12,–,> 100 µM (inactive),> 100 µM (inactive),> 100 µM (inactive),> 100 µM (inactive),–,> 100 µM (inactive),> 100 µM (inactive),> 100 µM (inactive),> 100 µM (inactive),> 100 µM (inactive),> 100 µM,> 100 µM (inactive),> 100 µM (inactive),–,> 100 µM (inactive),17.3 µM (inactive),–,–
O=S(=O)(c1ccccc1)N1N=C2c3ccccc3CCC[C@H]2C1c1ccccc1 (some centres undefined),> 100 µM (inactive),> 100 µM (inactive),> 100 µM (inactive),> 100 µM (inactive),> 100 µM (inactive),> 100 µM (inactive),> 100 µM (inactive),> 100 µM (inactive),> 100 µM (inactive),> 100 µM (inactive),> 100 µM (inactive),> 100 µM,> 87.1 µM (inactive),> 100 µM (inactive),> 100 µM (inactive),> 92.3 µM (inactive),> 100 µM (inactive),> 66.1 µM (inactive),–
CS(=O)(=O)c1ccc(-c2cc(-c3ccc(S(C)(=O)=O)cc3)[n+](-c3cc(-c4ccc(S(C)(=O)=O)cc4)c([O-])c(-c4ccc(S(C)(=O)=O)cc4)c3)c(-c3ccc(S(C)(=O)=O)cc3)c2)cc1,> 100 µM (inactive),> 100 µM (inactive),> 100 µM (inactive),> 100 µM (inactive),–,> 100 µM (inactive),> 100 µM (inactive),> 100 µM (inactive),> 100 µM (inactive),> 100 µM (inactive),> 100 µM (inactive),> 100 µM,> 100 µM (inactive),> 100 µM (inactive),> 100 µM (inactive),> 100 µM (inactive),> 100 µM (inactive),> 100 µM (inactive),–
CCc1ccccc1NC(=O)CCc1nnc(S)[nH]1,> 100 µM (inactive),> 100 µM (inactive),> 100 µM (inactive),> 100 µM (inactive),> 100 µM (inactive),> 100 µM (inactive),> 100 µM (inactive),> 100 µM (inactive),> 100 µM (inactive),> 100 µM (inactive),> 100 µM (inactive),> 100 µM,> 100 µM (inactive),> 100 µM (inactive),> 100 µM (inactive),> 100 µM (inactive),> 100 µM (inactive),> 100 µM (inactive),–
FC(F)(F)c1ccccc1/C=N/C12CC3CC(CC(C3)C1)C2,–,> 100 µM (inactive),> 100 µM (inactive),> 100 µM (inactive),> 100 µM (inactive),> 100 µM (inactive),> 100 µM (inactive),> 100 µM (inactive),0.986 µM (active),> 100 µM (inactive),> 100 µM (inactive),> 100 µM,–,> 100 µM (inactive),> 100 µM (inactive),> 100 µM (inactive),> 100 µM (inactive),> 100 µM (inactive),–
CCN=C=NCCCN(C)C,> 100 µM (inactive),> 100 µM (inactive),> 100 µM (inactive),> 100 µM (inactive),> 100 µM (inactive),> 100 µM (inactive),> 100 µM (inactive),> 100 µM (inactive),> 100 µM (inactive),> 100 µM (inactive),> 100 µM (inactive),> 100 µM,> 100 µM (inactive),–,> 100 µM (inactive),> 100 µM (inactive),> 100 µM (inactive),> 100 µM (inactive),> 100 µM (inactive)
N#Cc1c(-c2ccc([N+](=O)[O-])cc2)c(C#N)c(=O)n(NS(=O)(=O)c2ccccc2)c1S,21.2 µM (inactive),20 µM (inactive),> 100 µM (inactive),–,74.6 µM (inactive),> 100 µM (inactive),37.8 µM (inactive),> 100 µM (inactive),44.2 µM (inactive),17.4 µM (inactive),30.2 µM (inactive),36.9 µM,20.7 µM (inactive),40.6 µM (inactive),30 µM (inactive),25.3 µM (inactive),33 µM (inactive),65 µM (inactive),31.4 µM (inactive)
O=C(O)C1(C(=O)O)CC1,> 100 µM (inactive),> 100 µM (inactive),> 100 µM (inactive),> 100 µM (inactive),> 100 µM (inactive),> 100 µM (inactive),> 100 µM (inactive),> 100 µM (inactive),> 100 µM (inactive),> 100 µM (inactive),> 100 µM (inactive),> 100 µM,> 100 µM (inactive),> 100 µM (inactive),> 100 µM (inactive),> 100 µM (inactive),40 µM (inactive),–,–
COc1cc(S(=O)(=O)Nc2ccc(-c3csc(N4C(=O)CSC4c4ccccc4O)n3)cc2)ccc1Cl (centres undefined),24.3 µM (inactive),34.8 µM (inactive),85.7 µM (inactive),31.5 µM (inactive),–,–,32.4 µM (inactive),52.2 µM (inactive),57.9 µM (inactive),92 µM (inactive),34.8 µM (inactive),58.5 µM,29.4 µM (inactive),21.6 µM (inactive),44.8 µM (inactive),38.4 µM (inactive),–,32.9 µM (inactive),30.9 µM (inactive)
O=C(O)CCC(NC(=O)c1ccc(Nc2nc3ccccc3nc2-c2cccs2)cc1)C(=O)O (centres undefined),> 100 µM (inactive),> 100 µM (inactive),> 100 µM (inactive),> 100 µM (inactive),> 100 µM (inactive),> 100 µM (inactive),> 100 µM (inactive),> 100 µM (inactive),> 100 µM (inactive),> 100 µM (inactive),> 100 µM (inactive),> 100 µM,> 100 µM (inactive),> 100 µM (inactive),> 100 µM (inactive),> 100 µM (inactive),> 100 µM (inactive),> 100 µM (inactive),–
N#CC(C#N)=C(C(C#N)C#N)C(C#N)C#N,> 100 µM (inactive),> 100 µM (inactive),> 100 µM (inactive),> 100 µM (inactive),> 100 µM (inactive),> 100 µM (inactive),–,> 100 µM (inactive),> 100 µM (inactive),> 100 µM (inactive),> 100 µM (inactive),> 100 µM,> 100 µM (inactive),> 100 µM (inactive),> 100 µM (inactive),> 100 µM (inactive),> 100 µM (inactive),> 100 µM (inactive),–

# Reference: ChEMBL document CHEMBL1201862, “PubChem BioAssay data set” (2004)
